From the supplement of paper PMC12698765
Structures can show the parent of a compound that is named as a salt. ± gives the standard deviation of the averaged measurements.

Tests used:
[1] = system: 409B2 hiPSC (iCRISPR Cas9, FRMD7 editing); assay: cell survival relative to solvent control (fold (ratio to mock)); higher = more surviving cells
Procedure: (§1)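 Subset screen of 55 drugs tested at 5 concentrations around the effective screening dose, in 409B2 iCRISPR Cas9 hiPSCs editing FRMD7 with a ssDNA donor. Drugs were applied for 24 h. Viability was read by resazurin and editing outcomes by amplicon sequencing (HDR, NHEJ <2 bp microhomology, MMEJ ≥2 bp microhomology). Values are relative to solvent mock controls; two biological replicates.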

[2] = system: 409B2 hiPSC (iCRISPR Cas9, FRMD7 editing); assay: HDR (precise edit) frequency relative to solvent control (fold (ratio to mock)); higher = more homology-directed repair outcomes
Procedure: as §1

[3] = system: 409B2 hiPSC (iCRISPR Cas9, FRMD7 editing); assay: NHEJ-attributed indel frequency relative to solvent control (fold (ratio to mock)); higher = more NHEJ outcomes
Procedure: as §1

[4] = system: 409B2 hiPSC (iCRISPR Cas9, FRMD7 editing); assay: MMEJ-attributed deletion frequency relative to solvent control (fold (ratio to mock)); higher = more MMEJ outcomes
Procedure: as §1

SMILES	cell survival ([1]; 2000 nM)	cell survival ([1]; 5000 nM)	cell survival ([1]; 10000 nM)	cell survival ([1]; 20000 nM)	cell survival ([1]; 50000 nM)	HDR ([2]; 2000 nM)	HDR ([2]; 5000 nM)	HDR ([2]; 10000 nM)	HDR ([2]; 20000 nM)	HDR ([2]; 50000 nM)	NHEJ-attributed indel frequency ([3]; 2000 nM)	NHEJ-attributed indel frequency ([3]; 5000 nM)	NHEJ-attributed indel frequency ([3]; 10000 nM)	NHEJ-attributed indel frequency ([3]; 20000 nM)	NHEJ-attributed indel frequency ([3]; 50000 nM)	MMEJ-attributed deletion frequency ([4]; 2000 nM)	MMEJ-attributed deletion frequency ([4]; 5000 nM)	MMEJ-attributed deletion frequency ([4]; 10000 nM)	MMEJ-attributed deletion frequency ([4]; 20000 nM)	MMEJ-attributed deletion frequency ([4]; 50000 nM)	further results
CNCC[C@H](Oc1cccc2ccccc12)c1cccs1 [Duloxetine HCl] (in DMSO)	0.92	1.24	1.18	0.796	0.0121	1.02 ± 0.13	1.14 ± 0.024	1.02 ± 0.0038	0.88 ± 0.06	0.33 ± 0.35	0.932 ± 0.027	0.986 ± 0.0019	0.998 ± 0.025	1.029 ± 0.0059	0.517 ± 0.45	1.09 ± 0.25	1.14 ± 0.069	1.36 ± 0.053	1.86 ± 0.036	1.42 ± 0.81	–
C[C@]12CC[C@@H]3c4ccc(O)cc4CC[C@H]3[C@@H]1C[C@@H](O)[C@@H]2O [Estriol] (in DMSO)	0.929	1.19	1.05	0.994	1.15	0.971 ± 0.021	1.12 ± 0.049	1.07 ± 0.019	1.11 ± 0.019	1.15 ± 0.078	1.02 ± 0.015	0.988 ± 0.043	0.987 ± 0.043	0.9898 ± 0.0067	0.986 ± 0.047	0.923 ± 0.2	0.996 ± 0.019	1 ± 0.038	1.04 ± 0.014	0.971 ± 0.029	cell survival ([1]; 20 nM): 0.994; cell survival ([1]; 50 nM): 1.11; cell survival ([1]; 100 nM): 0.907; cell survival ([1]; 200 nM): 1.02; cell survival ([1]; 500 nM): 0.944; HDR ([2]; 20 nM): 1.18 ± 0.038; HDR ([2]; 50 nM): 1.03 ± 0.06; HDR ([2]; 100 nM): 1.02 ± 0.079; HDR ([2]; 200 nM): 1.04 ± 0.094; HDR ([2]; 500 nM): 1.08 ± 0.14; NHEJ-attributed indel frequency ([3]; 20 nM): 0.994 ± 0.029; NHEJ-attributed indel frequency ([3]; 50 nM): 1.01 ± 0.0089; NHEJ-attributed indel frequency ([3]; 100 nM): 1.01 ± 0.039; NHEJ-attributed indel frequency ([3]; 200 nM): 1.01 ± 0.018; NHEJ-attributed indel frequency ([3]; 500 nM): 1.02 ± 0.025; MMEJ-attributed deletion frequency ([4]; 20 nM): 0.961 ± 0.14; MMEJ-attributed deletion frequency ([4]; 50 nM): 0.901 ± 0.016; MMEJ-attributed deletion frequency ([4]; 100 nM): 0.923 ± 0.1; MMEJ-attributed deletion frequency ([4]; 200 nM): 0.917 ± 0.12; MMEJ-attributed deletion frequency ([4]; 500 nM): 0.932 ± 0.1
CO[C@@H]1[C@H](OC(=O)/C=C/C=C/C=C/C=C/C(=O)O)CC[C@]2(CO2)[C@H]1[C@@]1(C)O[C@@H]1CC=C(C)C [Fumagillin] (in DMSO)	–	–	–	–	–	–	–	–	–	–	–	–	–	–	–	–	–	–	–	–	cell survival ([1]; 20 nM): 0.264; cell survival ([1]; 50 nM): 0.134; cell survival ([1]; 100 nM): 0.0522; cell survival ([1]; 200 nM): 0.0162; cell survival ([1]; 500 nM): 0.0244; HDR ([2]; 20 nM): 1.073 ± 0.0017; HDR ([2]; 50 nM): 0.886 ± 0.049; HDR ([2]; 100 nM): 0.791 ± 0.23; HDR ([2]; 200 nM): 0.512 ± 0.27; HDR ([2]; 500 nM): 0.471 ± 0.18; NHEJ-attributed indel frequency ([3]; 20 nM): 0.883 ± 0.019; NHEJ-attributed indel frequency ([3]; 50 nM): 0.767 ± 0.041; NHEJ-attributed indel frequency ([3]; 100 nM): 0.723 ± 0.14; NHEJ-attributed indel frequency ([3]; 200 nM): 0.604 ± 0.14; NHEJ-attributed indel frequency ([3]; 500 nM): 0.537 ± 0.071; MMEJ-attributed deletion frequency ([4]; 20 nM): 0.749 ± 0.1; MMEJ-attributed deletion frequency ([4]; 50 nM): 0.7745 ± 0.0004; MMEJ-attributed deletion frequency ([4]; 100 nM): 0.739 ± 0.15; MMEJ-attributed deletion frequency ([4]; 200 nM): 0.705 ± 0.15; MMEJ-attributed deletion frequency ([4]; 500 nM): 0.656 ± 0.17
CS(=O)(=O)N1CCN(Cc2cc3nc(-c4cccc5[nH]ncc45)nc(N4CCOCC4)c3s2)CC1 [GDC-0941] (in DMSO)	–	–	–	–	–	–	–	–	–	–	–	–	–	–	–	–	–	–	–	–	cell survival ([1]; 20 nM): 0.924; cell survival ([1]; 50 nM): 0.877; cell survival ([1]; 100 nM): 0.7; cell survival ([1]; 200 nM): 0.444; cell survival ([1]; 500 nM): 0.15; HDR ([2]; 20 nM): 1.15 ± 0.048; HDR ([2]; 50 nM): 1.08 ± 0.0031; HDR ([2]; 100 nM): 1.08 ± 0.075; HDR ([2]; 200 nM): 1.14 ± 0.076; HDR ([2]; 500 nM): 1.06 ± 0.19; NHEJ-attributed indel frequency ([3]; 20 nM): 0.978 ± 0.0067; NHEJ-attributed indel frequency ([3]; 50 nM): 0.99142 ± 0.00057; NHEJ-attributed indel frequency ([3]; 100 nM): 0.945 ± 0.042; NHEJ-attributed indel frequency ([3]; 200 nM): 0.94 ± 0.041; NHEJ-attributed indel frequency ([3]; 500 nM): 0.86 ± 0.063; MMEJ-attributed deletion frequency ([4]; 20 nM): 1.02 ± 0.14; MMEJ-attributed deletion frequency ([4]; 50 nM): 0.875 ± 0.054; MMEJ-attributed deletion frequency ([4]; 100 nM): 0.874 ± 0.016; MMEJ-attributed deletion frequency ([4]; 200 nM): 0.926 ± 0.2; MMEJ-attributed deletion frequency ([4]; 500 nM): 0.887 ± 0.078
CN(C)C(=O)Oc1cccc([N+](C)(C)C)c1 [Hodostin] (in DMSO)	0.969	1.28	1	1.14	1.29	1.13 ± 0.068	1.1 ± 0.087	1.05 ± 0.15	1.15 ± 0.044	1.24 ± 0.054	0.983 ± 0.013	0.992 ± 0.024	0.996 ± 0.04	0.9928 ± 0.0066	0.992 ± 0.029	0.943 ± 0.1	0.965 ± 0.13	0.922 ± 0.014	0.944 ± 0.085	1.05 ± 0.12	–
OC[C@H]1O[C@@H](c2ccc(F)c(Cc3cc4ccccc4s3)c2)[C@H](O)[C@@H](O)[C@@H]1O [Ipragliflozin] (in DMSO)	–	–	–	–	–	–	–	–	–	–	–	–	–	–	–	–	–	–	–	–	cell survival ([1]; 20 nM): 0.951; cell survival ([1]; 50 nM): 1.11; cell survival ([1]; 100 nM): 0.915; cell survival ([1]; 200 nM): 1.12; cell survival ([1]; 500 nM): 0.95; HDR ([2]; 20 nM): 1.09 ± 0.029; HDR ([2]; 50 nM): 1 ± 0.037; HDR ([2]; 100 nM): 0.984 ± 0.064; HDR ([2]; 200 nM): 1.02 ± 0.07; HDR ([2]; 500 nM): 1.05 ± 0.067; NHEJ-attributed indel frequency ([3]; 20 nM): 1 ± 0.038; NHEJ-attributed indel frequency ([3]; 50 nM): 0.9974 ± 0.0051; NHEJ-attributed indel frequency ([3]; 100 nM): 1.005 ± 0.0019; NHEJ-attributed indel frequency ([3]; 200 nM): 1.01 ± 0.012; NHEJ-attributed indel frequency ([3]; 500 nM): 0.995 ± 0.032; MMEJ-attributed deletion frequency ([4]; 20 nM): 0.982 ± 0.092; MMEJ-attributed deletion frequency ([4]; 50 nM): 0.909 ± 0.09; MMEJ-attributed deletion frequency ([4]; 100 nM): 0.913 ± 0.041; MMEJ-attributed deletion frequency ([4]; 200 nM): 0.94 ± 0.11; MMEJ-attributed deletion frequency ([4]; 500 nM): 1.07 ± 0.08
CCc1c2c(nc3ccc(OC(=O)N4CCC(N5CCCCC5)CC4)cc13)-c1cc3c(c(=O)n1C2)COC(=O)[C@]3(O)CC [Irinotecan HCl Trihydrate] (in DMSO)	0.00496	0.00337	–	–	–	0.16683 ± 7e-05	0.149 ± 0.016	–	–	–	0.439 ± 0.01	0.434 ± 0.028	–	–	–	0.541 ± 0.16	0.575 ± 0.049	–	–	–	cell survival ([1]; 200 nM): 0.618; cell survival ([1]; 500 nM): 0.158; cell survival ([1]; 1000 nM): 0.0216; HDR ([2]; 200 nM): 1.097 ± 0.0069; HDR ([2]; 500 nM): 0.954 ± 0.14; HDR ([2]; 1000 nM): 0.662 ± 0.22; NHEJ-attributed indel frequency ([3]; 200 nM): 0.914 ± 0.024; NHEJ-attributed indel frequency ([3]; 500 nM): 0.694 ± 0.021; NHEJ-attributed indel frequency ([3]; 1000 nM): 0.617 ± 0.21; MMEJ-attributed deletion frequency ([4]; 200 nM): 0.853 ± 0.043; MMEJ-attributed deletion frequency ([4]; 500 nM): 0.688 ± 0.013; MMEJ-attributed deletion frequency ([4]; 1000 nM): 0.566 ± 0.31
O=[N+]([O-])O[C@@H]1CO[C@H]2[C@@H]1OC[C@@H]2O [Isosorbide 5-mononitrate] (in DMSO)	0.898	1.39	1.19	1.15	1.36	1.08 ± 0.25	1.14 ± 0.04	1.14 ± 0.051	1.07 ± 0.14	1.22 ± 0.11	0.899 ± 0.036	0.9787 ± 0.0053	0.967 ± 0.016	0.988 ± 0.033	0.983 ± 0.013	0.904 ± 0.25	0.993 ± 0.058	0.983 ± 0.057	0.994 ± 0.012	0.955 ± 0.048	–
CC(CCc1ccccc1)NCC(O)c1ccc(O)c(C(N)=O)c1 (stereo not given) [Labetalol HCl] (in DMSO)	0.953	1.39	1.08	1.14	1.15	1.05 ± 0.063	0.878 ± 0.059	0.834 ± 0.025	0.757 ± 0.049	0.756 ± 0.028	0.988 ± 0.029	1.02 ± 0.0051	1.05 ± 0.018	1.093 ± 0.0077	1.0876 ± 0.00036	1.04 ± 0.027	0.975 ± 0.13	1.13 ± 0.15	1.08 ± 0.034	1.25 ± 0.049	–
CCN1CCC[C@H]1CNC(=O)c1cc(S(N)(=O)=O)ccc1OC [Levosulpiride] (in DMSO)	1.06	1.32	1.26	1.18	1.33	1.05 ± 0.047	1.07 ± 0.081	1.13 ± 0.019	1.06 ± 0.13	1.09 ± 0.081	0.98 ± 0.013	0.9952 ± 0.0031	0.9818 ± 0.0064	1 ± 0.012	0.978 ± 0.038	1.07 ± 0.1	1.06 ± 0.0093	0.994 ± 0.19	1 ± 0.04	1 ± 0.04	–
CN(C)C(=O)C(CCN1CCC(O)(c2ccc(Cl)cc2)CC1)(c1ccccc1)c1ccccc1 [Loperamide HCl] (in DMSO)	0.928	1.24	0.607	-0.00906	-0.00864	0.9969 ± 0.0053	1.01 ± 0.044	0.873 ± 0.035	0.136 ± 0.067	0.138 ± 0.11	0.923 ± 0.077	0.9735 ± 0.0074	0.928 ± 0.06	0.324 ± 0.053	0.186 ± 0.085	1.31 ± 0.23	1.1 ± 0.094	0.998 ± 0.032	0.465 ± 0.16	0.224 ± 0.07	–
